# Laboratory results as given in US11419806B2, “Prebiotic oral care methods using a saccharide” (Colgate-Palmolive Company, priority 2013, dated 2022).
# Assays:
# Assay type in all cases: cell-based
# [1] = test system: beneficial oral bacteria and pathogenic oral bacteria; assay: Twenty-four hour biofilm growth, overall prebiotic assessment
# Source text: Substrates that were able to increase the biofilm mass of at least one of the above beneficial bacteria while not or only minimally increasing the biofilm mass of the pathogenic bacteria are considered to be prebiotic compounds.
# The increase in biofilm formation of the tested bacteria in response to selected saccharides (D-turanose, D-lactitol, myo-inositol, and N-acetyl-D-mannosamine) was investigated by setting up biofilm growth assays in a nutritionally rich medium (brain heart infusion broth (BHI), Oxoid), over 24 hours. Late exponential growth phase liquid cultures were prepared by transferring the respective bacterium from blood agar plates to BHI and overnight incubation at 37° C. in an anaerobic atmosphere for A. viscosus, V. parvula, P. gingivalis, P. intermedia, T. forsythia, A. naeslundii, and C. sputigena, and in a 5% CO2 environment for S. salivarius, S. sanguinis, S. mitis, A. actinomycetemcomitans, S. mutans, and S. gordonii. Overnight cultures were transferred to BHI and adjusted to a concentration of 1×10^7 CFU/ml by measuring the optical density at 600 nm (OD600) (BioRad SmartSpec 3000). For each strain, 200 μl of the bacterial suspension was added to a 96-well plate containing 20 μl of the respective saccharides. Final concentrations of the saccharides were set to 5, 10, 20 and 25 μmol/ml. […] Additionally, for each bacterium tested, a background control, to correct for background staining, was added. This background control contained the bacterium tested and 0.03 weight % chlorhexidine, as an antiseptic. Plates were incubated as previously described. After 24 hrs the supernatant was removed from the wells of the plates. The wells were washed twice with 1×100 μL PBS (phosphate buffered saline), fixed for 20 minutes with 96% vol. ethanol (96% vol. solution in water) and the biofilm retained at the bottom of the wells was stained with 1 weight % crystal violet (1 weight % solution in water). The bound dye was dissolved with 5% vol. acetic acid (5% vol. solution in water). Quantification of the stained biofilm was performed by measuring the absorbance at 630 nm using a Multiskan Ascent microplate reader (Thermo Scientific).
# The experiment was carried out on three different days (thus providing 3 biological replicas) and each day the experiment was carried out in quadruple (thus providing 4 technical replicas) for each combination of bacterium with saccharide and for each control. For each day and for each combination, the average (mean) of the values obtained (as detailed above) for the four technical replicas was calculated to provide a single value for each combination on each day. The values shown in Tables 7a, 7b, 8a, 8b, below, are the average (mean) of the three single values obtained for each combination of bacterium with saccharide. […]
# Streptococcus sobrinus = assay: Phenotype microarray metabolic activity; conditions: S sobrinus
# Experimental: (§1) The extent of metabolic activity of the tested bacteria in the presence of the above-mentioned saccharides after 24 hours and 48 hours was investigated through a high throughput phenotype microarray system (PM) for microbial cells (Biolog Inc.). Each PM can contain up to 95 different biochemical compounds (e.g. saccharides) that may act as substrates for bacteria as well as one negative control, not containing the substrates. Microarray plates were used in which the different wells of each plate were pre-loaded (by the manufacturer, Biolog Inc.) with different saccharides to be tested. Each bacterial species was tested using a separate microarray plate. Thus, a single bacterial species was tested with a variety of saccharides on each particular plate. The microarrays are based on redox technology, using cell respiration as a universal reporter. Active cell respiration results in the reduction of a tetrazolium dye and in the formation of a strong color—for example, when using the tetrazolium dye “Biolog Redox Dye Mix D”, the color changes from transparent/colorless to purple when the dye is reduced. The observation of this color change indicates which of the substrates improve the metabolic activity and health of the cells.
# (§2) Each bacterial species was collected from blood agar plates (incubated for 48 hours anaerobically at 37° C.) and transferred to an IF-0 Base inoculation fluid (Biolog Inc.), which is a nutritionally poor medium. The resulting cell suspension was adjusted to a transmittance of 42% (relative to the transmittance of the base inoculation fluid with no bacterial species present) at 492 nm using a BioRad SmartSpec 3000 Photometer (the adjustment being effected by adding either further inoculation fluid or further bacteria until the transmittance of 42% was achieved). A 1:5 dilution of this suspension was prepared by mixing 3 mL of the 42% transmittance cell suspension with 15 mL of an inoculation fluid (which inoculation fluid was formed by mixing 11.6 mL sterile water, 62.5 mL IF-0 base inoculation fluid and 0.9 mL of the tetrazolium dye “Biolog Redox Dye mix D”), resulting in a final cell density which was equal to 85% transmittance using a BioRad SmartSpec 3000 Photometer. For each of the saccharides tested, the microarray plate (obtained from the supplier (Biolog Inc.) with saccharides already present in the relevant wells in powder form) was directly inoculated with 100 μL/well of this 85% transmittance cell suspension.
# (§3) All plates were incubated in an anaerobic atmosphere at 37° C. Color changes were measured spectrophotometrically at 492 nm (Thermo Scientific Multiskan Ascent) at 24 hrs and 48 hrs using the same plate at both time points. […] After 24 hrs and 48 hrs under continuous shaking in a Multiscan microplate reader, the optical density (OD) of the synthetic medium at 24 hours and 48 hours was measured (using the microplate reader) at a wavelength of 492 nm for each combination of bacterium/saccharide, and for each of their respective controls (i.e. which contained the particular bacterium but no saccharide).
# (§4) The experiment was carried out three times for each combination of bacterium with saccharide, with each repeat being carried out on a different day (thus providing three biological replicas). The controls were also carried out three times, as above. The values shown are the average (mean) of the three single values obtained (as detailed above) for each combination of bacterium with saccharide, at 24 hrs and at 48 hrs.
# Fusobacterium nucleatum = assay: Phenotype microarray metabolic activity; conditions: F nucleatum
# Experimental: as §1, §2, §3, §4
# Actinomyces viscosus = assay: Phenotype microarray metabolic activity; conditions: for metabolic activity: OD 492 nm divided by OD of control (control = 1): A viscosus
# Experimental: as §1, §2, §3, §4
# Porphyromonas gingivalis = assay: Phenotype microarray metabolic activity; conditions: P gingivalis
# Experimental: as §1, §2, §3, §4
# Streptococcus salivarius = assay: Phenotype microarray metabolic activity; conditions: for metabolic activity: OD 492 nm divided by OD of control (control = 1): S salivarius
# Experimental: as §1, §2, §3, §4
# Streptococcus mutans = assay: Phenotype microarray metabolic activity; conditions: for metabolic activity: OD 492 nm divided by OD of control (control = 1): S mutans
# Experimental: as §1, §2, §3, §4
# Actinomyces naeslundii = assay: Phenotype microarray metabolic activity; conditions: for metabolic activity: OD 492 nm divided by OD of control (control = 1): A naeslundii
# Experimental: as §1, §2, §3, §4
# Capnocytophaga sputigena = assay: Phenotype microarray metabolic activity; conditions: C sputigena
# Experimental: as §1, §2, §3, §4
# Veillonella parvula = assay: Phenotype microarray metabolic activity; conditions: V parvula
# Experimental: as §1, §2, §3, §4
# [2] = concentrations of 5, 10, 20 and 25 μmol/ml
Structure (SMILES),"prebiotic effects (biofilm growth, threshold value 1.6) [1, 2]",metabolic activity: OD 492 nm divided by OD of control (control = 1) (Streptococcus sobrinus; 24 hrs),metabolic activity: OD 492 nm divided by OD of control (control = 1) (Streptococcus sobrinus; 48 hrs),metabolic activity: OD 492 nm divided by OD of control (control = 1) (Fusobacterium nucleatum; 24 hrs),metabolic activity: OD 492 nm divided by OD of control (control = 1) (Fusobacterium nucleatum; 48 hrs),metabolic activity: OD 492 nm divided by OD of control (control = 1) (Actinomyces viscosus; 24 hrs),metabolic activity: OD 492 nm divided by OD of control (control = 1) (Actinomyces viscosus; 48 hrs),metabolic activity: OD 492 nm divided by OD of control (control = 1) (Porphyromonas gingivalis; 24 hrs),metabolic activity: OD 492 nm divided by OD of control (control = 1) (Porphyromonas gingivalis; 48 hrs),metabolic activity: OD 492 nm divided by OD of control (control = 1) (Streptococcus salivarius; 24 hrs),metabolic activity: OD 492 nm divided by OD of control (control = 1) (Streptococcus salivarius; 48 hrs),metabolic activity: OD 492 nm divided by OD of control (control = 1) (Streptococcus mutans; 24 hrs),metabolic activity: OD 492 nm divided by OD of control (control = 1) (Streptococcus mutans; 48 hrs),metabolic activity: OD 492 nm divided by OD of control (control = 1) (Actinomyces naeslundii; 24 hrs),metabolic activity: OD 492 nm divided by OD of control (control = 1) (Actinomyces naeslundii; 48 hrs),metabolic activity: OD 492 nm divided by OD of control (control = 1) (Capnocytophaga sputigena; 24 hrs),metabolic activity: OD 492 nm divided by OD of control (control = 1) (Capnocytophaga sputigena; 48 hrs),metabolic activity: OD 492 nm divided by OD of control (control = 1) (Veillonella parvula; 24 hrs),metabolic activity: OD 492 nm divided by OD of control (control = 1) (Veillonella parvula; 48 hrs),also measured
"OC[C@@H](O)[C@@H](O[C@H]1O[C@H](CO)[C@H](O)[C@H](O)[C@H]1O)[C@H](O)[C@@H](O)CO [D-Lactitol, 4-O-α-D-galactopyranosyl-D-glucitol]",exhibited prebiotic effects,1.4178,1.3908,0.9115,0.7913,4.2553,4.9364,0.8216,1.0092,4.7396,5.1101,2.0160,2.7520,2.4399,3.3992,0.9032,1.0097,0.8079,0.6786,"increase in metabolic activity of A. viscosus, in words (Actinomyces viscosus; 24 hrs): marked increase; increase in metabolic activity of S. salivarius, in words (Streptococcus salivarius; 24 hrs): marked increase; increase in metabolic activity of S. mutans, in words (Streptococcus mutans; 24 hrs): borderline increase; increase in metabolic activity of A. naeslundii, in words (Actinomyces naeslundii; 24 hrs): marked increase"
"OC[C@H]1O[C@@](O)(CO)[C@@H](O[C@H]2O[C@H](CO)[C@@H](O)[C@H](O)[C@H]2O)[C@@H]1O [D-Turanose, α-D-glucopyranosyl-(1→3)-α-D-fructofuranose]",,1.6552,1.8299,1.3517,1.6086,2.2260,3.0809,0.8165,0.7822,1.1489,1.2834,1.4769,2.1955,2.1636,2.7551,0.9893,1.0899,0.8743,0.7770,"prebiotic effects (biofilm growth, threshold value 1.6) ([1]; concentrations of 20 and 25 μmol/ml): exhibited prebiotic effects"
"O[C@H]1[C@H](O)[C@@H](O)[C@H](O)[C@@H](O)[C@H]1O [Myo-Inositol, (1R,2R,3S,4S,5R,6S)-cyclohexane-1,2,3,4,5,6-hexol]",exhibited prebiotic effects,0.9699,0.9399,0.9063,0.8999,4.3733,4.6590,0.8077,0.7871,0.9641,0.8260,0.8961,0.8221,3.8627,4.5573,0.5471,0.8107,1.0283,1.0829,
